Data on 1 substance can be found in patent US20110123562A1, “ANTI-CANCER ACTIVE SUBSTANCE FROM ANTRODIA CAMPHORATA, METHOD FOR PREPARING THE SAME AND USE THEREOF” (priority 2009, published 2011).

Holding throughout (type): cell-based
The test system of series [1] is colon cancer cells (CT26). Kind of series: Anti-proliferative activity against colon cancer cells. How it is done:
(§1) HepG2 cells were obtained from American Type Culture Collection, ATCC, Rockville, Md., U.S.A. and were maintained in Williams medium E (WME), containing 10 mM/L HEPES, 5 μg/mL insulin, 2 μg/mL, glucagon, 0.05 μg/mL hydrocortisone, and 5% fetal bovine serum (Gibco Life Technologies, Grand Island, N.Y., USA). Colon cancer cells (CT26, BCRC 60443), prostate cancer cells (LNCaP, BCRC 60088) and breast cancer cells (MDA-MB-231, BCRC 60425) were obtained from the Biosources Collection and Research Center (BCRC) in the Food industry Research and Development Institute (Hsinchu, Taiwan).
(§2) HepG2 cells in WME were cultured on a 96-well cell culture plate (2.5×10^4cells per well) and incubate at 37° C. with 5% CO2. After 4 hours incubation, replace the medium with different concentrations of Antrodia camphorata sample extracts. […] After 72 and 96 h of incubation, cell proliferation was determined by MTS assay (MTS-based cell titer 96 non-radioactivity cell proliferation assay, Promega, Madison, Wis., U.S.A.) so as to examine the anti-hepatoma activity. […] Cell proliferation was determined at 72 and 96 h from the MTS absorbance reading at 490 nm for each concentration compared with the control. […] The selective effect on cancer cells was expressed as SI (selective index) value. The SI value was determined as the ratio of CC50 versus EC50 for a tested sample.

In series [2] the test system is HepG2 cells. Kind of series: Cytotoxicity (CC50) on HepG2 cells, MTS assay. The settings on record: concentration reducing cell viability to 50% of control in 24 h. How it is done: as §1, §2
In general terms: Tetrazolium dyes change colour on reduction, which living cells bring about.

Series [3] has as its system prostate cancer cells (LNCaP). Kind of series: Anti-proliferative activity against prostate cancer cells. How it is done: as §1, §2
The test system of series [4] is breast cancer cells (MDA-MB-231). Kind of series: Anti-proliferative activity against breast cancer cells. Conditions: MDA-MB-231 breast cancer cells. The procedure: as §1, §2
Series [5] deals with HepG2 cells. Kind of series: Anti-proliferation of HepG2 cells, MTS assay. The procedure:
as §1
HepG2 cells in WME were cultured on a 96-well cell culture plate (2.5×10^4cells per well) and incubate at 37° C. with 5% CO2. After 4 hours incubation, replace the medium with different concentrations of Antrodia camphorata sample extracts. The Antrodia camphorata extracts were dissolved in 1% dimethyl sulfoxide (DMSO) and mixed with WME medium so as to prepare extracts at different concentrations and the final concentration of DMSO was maintained below 1%. Control cultures contained only extraction solvents, and blank wells contained 100 μL growth medium with no cells. After 72 and 96 h of incubation, cell proliferation was determined by MTS assay (MTS-based cell titer 96 non-radioactivity cell proliferation assay, Promega, Madison, Wis., U.S.A.) so as to examine the anti-hepatoma activity. MTS is a colorimetric method utilizing a tetrazolium reagent. Cell proliferation was determined at 72 and 96 h from the MTS absorbance reading at 490 nm for each concentration compared with the control. […] The EC50 of a sample is defined as the median effective dose of a sample (the concentration of the sample which results in 50% of cell viability) after treating the cancer cells for a certain period of time. At least three replications of each sample were tested to confirm cell proliferation and cytotoxicity. The selective effect on cancer cells was expressed as SI (selective index) value. The SI value was determined as the ratio of CC50 versus EC50 for a tested sample.

Some results are limits rather than exact numbers.

For 4-acetylantroquinonol B, the IC50 was 48.12 ± 5.61 µg/mL in series [1], 16.841 ± 3.41 µg/mL in series [3] and 0.091 µg/mL in series [4]. For the same substance, the cell viability result in series [1], in series [3] and in series [4] was “below 50%” each time. Further, in series [2], the 50% cytotoxic concentration (CC50) was greater than 10 µg/mL. Also, the “anti-proliferative activity compared to crude extract” value in series [5] is listed as 50 times. Further, the “EC50 72 hours” value in series [5] (72 h treatment, MTS) was 0.1 µg/mL. In series [5] (96 h treatment, MTS), the “EC50 96 hours” value was found to be 0.08 µg/mL.

As usually defined, the IC50 is the midpoint of a concentration-inhibition curve. The low end stands for greater potency in that assay, the high end for weaker potency in that assay. What is called CC50 is the concentration at which the toxic effect on the cells reaches its halfway point.
